# Measurements: the supplement of paper PMC11208160
# Assay: recombinant barcode read abundance after kanamycin selection (control-corrected) (log10(CPM+1)); higher = more efficient recombination; sequences stand for … in AGTGCAGAGAAAATCGGCCAGTTTTCTCTGCCTGCAGTCCGCATGCCGT…AGATTTATGCAGCGGACTGCCTTTCTCCCAAAGTGATAAACCGGACAGTATCATGGACCGGTTTTCCCGGTAATCCGTATTTGCAAGGTTGGTTTCACT; site = the 11-nt target
# Method in brief: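 Oligos holding a promoter, target, barcode and the J23119-driven first 104 bases of the bridge RNA were Gibson-cloned into a vector that supplied the other 73 bp plus a T7-inducible recombinase. This library was co-electroporated with a donor plasmid into E. coli. Two replicates went on chloramphenicol/ampicillin LB agar (control) and two on chloramphenicol/ampicillin/kanamycin with 0.1 mM IPTG. Recombination efficiency is read from averaged, control-corrected barcode counts per million at recombinant junctions, reported as log10(CPM+1).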
# 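Further: IS621 recombinase and bridge RNA in Escherichia coli cells.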
row,Sequence,recombinant barcode read abundance (log10)
1,GATGGTCCTTGGGTTCTAACCTGTTGCGG (site GATGGTCCTCC),2.34
2,GATTATACTTGGGTTCTAACCTGTTGCTT (site GATTATACTAA),0.0285
3,GATTATACTTGGGTTCTAACCTGTTGCTT (site TGCGGAGCTCG),0.046
4,GATTCTCCTTGGGTTCTAACCTGTTGCCT (site GATTCTCCTAA),0.0949
5,GATTCTCCTTGGGTTCTAACCTGTTGCCT (site GATTCTCCTAC),0.0529
6,GATTCTCCTTGGGTTCTAACCTGTTGCCT (site GATTCTCCTAG),0.0773
7,GATTCTCCTTGGGTTCTAACCTGTTGCCT (site GATTCTCCTAT),0
8,GATTGTCCTTGGGTTCTAACCTGTTGCTT (site GATTGTCCTAA),0.294
9,GATTGTCCTTGGGTTCTAACCTGTTGCTT (site GGTTGTCCTTA),0.23
10,GCAATCCCTTGGGTTCTAACCTGTTGCTA (site AGAATCCCTTA),0.0668
11,GCAATCCCTTGGGTTCTAACCTGTTGCTA (site GCAATCCCTTA),1.48
12,GCAATTGCTTGGGTTCTAACCTGTTGCCT (site AAGTCGTCTTA),0.19
13,GCAATTGCTTGGGTTCTAACCTGTTGCCT (site GCAATTGCTAG),0.458
14,GCACAAGCTTGGGTTCTAACCTGTTGCCT (site GCACAAGCTAG),0.978
15,GCACAAGCTTGGGTTCTAACCTGTTGCCT (site GCTCTAGCTAG),0.091
16,GCACATACTTGGGTTCTAACCTGTTGCCT (site GCACATACTAG),1.2
17,GCACATACTTGGGTTCTAACCTGTTGCCT (site GCACATTCTAG),0
18,GCACCAACTTGGGTTCTAACCTGTTGCCT (site CCACCGACTAG),0.242
19,GCACCAACTTGGGTTCTAACCTGTTGCCT (site GCACCAACTAG),1.12
20,GCACGACCTTGGGTTCTAACCTGTTGCCT (site GCACAACCTAG),0.808
21,GCACGACCTTGGGTTCTAACCTGTTGCCT (site GCACCACCTAG),0.0505
22,GCACGACCTTGGGTTCTAACCTGTTGCCT (site GCACGACCTAG),1.56

row,Sequence,recombinant barcode read abundance (log10)
1,GCACGACCTTGGGTTCTAACCTGTTGCCT (site GCACTACCTAG),0
2,GCACGGACTTGGGTTCTAACCTGTTGCAG (site GCAAGGACTCT),0.223
3,GCACGGACTTGGGTTCTAACCTGTTGCAG (site GCACGGACTCT),2.35
4,GCACGGACTTGGGTTCTAACCTGTTGCAG (site GCAGGGACTCT),0.164
5,GCACGGACTTGGGTTCTAACCTGTTGCAG (site GCATGGACTCT),0.3
6,GCACTAACTTGGGTTCTAACCTGTTGCCT (site GCACTAACTAG),1.14
7,GCACTAACTTGGGTTCTAACCTGTTGCCT (site GCACTAGCTAC),0.216
8,GCAGGGACTTGGGTTCTAACCTGTTGCAG (site GCAAGGACTCT),0.883
9,GCAGGGACTTGGGTTCTAACCTGTTGCAG (site GCACGGACTCT),0.552
10,GCAGGGACTTGGGTTCTAACCTGTTGCAG (site GCAGGGACTCT),1.72
11,GCAGGGACTTGGGTTCTAACCTGTTGCAG (site GCATGGACTCT),0.224
12,GCAGGGTCTTGGGTTCTAACCTGTTGCCT (site GCAAGATCTAG),0.158
13,GCAGGGTCTTGGGTTCTAACCTGTTGCCT (site GCAGGGTCTAG),1.45
14,GCATCGTCTTGGGTTCTAACCTGTTGCCT (site GCATCGTCTAG),0.649
15,GCATCGTCTTGGGTTCTAACCTGTTGCCT (site GCCTCGTCTAG),0.0437
16,GCATCGTCTTGGGTTCTAACCTGTTGCCT (site GCGTCGTCTAG),0.0424
17,GCATCGTCTTGGGTTCTAACCTGTTGCCT (site GCTTCGTCTAG),0.0989
18,GCCAACCCTTGGGTTCTAACCTGTTGCTT (site GCCAACCCTAA),0.0414
19,GCCAACCCTTGGGTTCTAACCTGTTGCTT (site GCCAACCCTAC),0.0528
20,GCCAACCCTTGGGTTCTAACCTGTTGCTT (site GCCAACCCTAG),0.412
21,GCCAACCCTTGGGTTCTAACCTGTTGCTT (site GCCAACCCTAT),0.39
